Data published in patent publication US20150359795A1, “HIGH DRUG LOAD PHARMACEUTICAL COMPOSITIONS WITH CONTROLLABLE RELEASE RATE AND PRODUCTION METHODS THEREOF” (Pharmosa Limited, priority 2014, published 2015).
Where a name gives a salt, the structure may show the parent alone.

Key:
[1] = Viscosity of saturated or unsaturated aqueous solutions of APIs, rotational viscometer (Brooksfield); format: physicochemical
Protocol: The viscosities of saturated aqueous solutions or aqueous solutions with different weight percentage are measured with Rotational viscometers (Brooksfield, USA) at constant temperature 25° C., and the rotation speed is 5-100 rpm.
(§1) The viscosities of saturated aqueous solutions or aqueous solutions with different weight percentage of the compounds are measured with Rotational viscometers (Brooksfield, USA) at 25° C.

[2] = Tablet-forming ability of APIs (self-granulation with water, hardness and friability of tablets); format: physicochemical; conditions: tablets of 99% API and 1% magnesium stearate, about 100 mg; for The tablet-forming ability Hardness of tablets (kp): wet granulated with purified water
Protocol: as §1
Each API listed in Table 1-1 is separately weighed […] and wet granulated in a high shear mixer using purified water. The wet granules are dried in an oven and sieved with 20 mesh screen. Each of the dried granules is separately transferred into a V-blender, and mixed with 5 g of magnesium stearate. The obtained mixture is compressed into tablets. Every tablet weighs about 100 mg, and contains magnesium stearate and an individual API.

[3] = prior art formulation with lactose, microcrystalline cellulose, crospovidone, magnesium stearate; cited from earlier work

Structure (SMILES) | Unsaturated aqueous solution at 25° C. Viscosity (cP) ([1]; weight percent 30%) | Saturated aqueous solution at 25° C. Viscosity (cP) [1] [cP] | The tablet-forming ability Friability of tablets (%) [2] [%] | The tablet-forming ability Hardness of tablets (kp) [2] | Unsaturated aqueous solution at 25° C. Viscosity (cP) ([1]; weight percent 25%) | Unsaturated aqueous solution at 25° C. Viscosity (cP) ([1]; weight percent 10%) | drug dissolved in 5 minutes in vitro [3]
COc1cc2nc(N(C)CCCNC(=O)C3CCCO3)nc(N)c2cc1OC (stereo not shown) [Alfuzosin HCl] | ~10 | ~170 | <0.1 | 3-8 kp |  |  | 
NS(=O)(=O)c1cc2c(cc1Cl)NCNS2(=O)=O [Hydrochlorothiazide] |  | ~1 |  |  |  |  | 
Cc1ccc(NC(=O)c2ccc(CN3CCN(C)CC3)cc2)cc1Nc1nccc(-c2cccnc2)n1 [Imatinib mesylate] |  | ~1100 | <0.1 | 3-8 kp | ~15 |  | 
CN(C)C(=N)N=C(N)N [Metformin HCl] |  | ~2 |  |  |  |  | 
CCCCCCCCOc1ccccc1C(=O)Nc1ccc(C(=O)OCC[N+](C)(CC)CC)cc1 [Otilonium bromide] |  | ~540 | <0.1 | 3-8 kp |  | ~12 | more than 90%
CCN1CCCC1CNC(=O)c1cc(S(N)(=O)=O)ccc1OC (stereo not shown) [Sulpiride] |  | ~2 |  |  |  |  | 
